In patent US9133239B2, “Compositions and methods for inhibiting matrix metalloproteinase (MMP)-mediated cell migration” (THE RESEARCH FOUNDATION FOR THE STATE UNIVERSITY OF NEW YORK, priority 2010, dated 2015):
Where two headings read alike, the source gives them in different places. Where a SMILES comes first, the peptide text is derived from it. Where no end group is shown, it is not given here.

Key:
[1] = test system: human breast cancer MCF-7 cells ectopically expressing MT1-MMP; assay: proMMP-2 activation by gelatin zymography of conditioned medium; format: cell-based; conditions: MCF-7 cells expressing MT1-MMP
From the text: The conditioned medium from human breast cancer MCF-7 cells ectopically expressing MT1-MMP in the presence of scrambled peptides or specific peptides was examined by gelatin zymography to determine whether interference with the PEX domain of MT1-MMP by the peptides also affects the proteolytic activity of MT1-MMP.

[2] = test system: human MDA-MB-231 breast cancer cell
[3] = test system: COS-1 cells transfected with MT1-MMP cDNA; assay: Cell migration of MT1-MMP transfected COS-1 cells; format: cell-based
From the text: (§1) Based on our studies of the structure-function relationship of the MT1-MMP hemopexin (PEX)-like domain, we designed and synthesized peptides mimicking 8 amino acids of the outermost β strand of blades I, II, III and IV from the PEX domain, named IS4-8 ([…]) (SEQ ID NO:01), IIS4-8 ([…]) (SEQ ID NO:02), and IVS4-8 ([…]) (SEQ ID NO:03), respectively. Corresponding scrambled peptides were synthesized as controls. […] We further designed truncated forms of IS4-8 and IVS-8 peptides from the N- and C-terminus of the peptides. The C-terminal 5 amino acids of the IS4-8, named IS4-5 (GYPMP) (SEQ ID NO:04) is essential for inhibition of functional MT1-MMP. […] Thus, the PEX domain of MT1-MMP is a high-specificity target for interference with MT1-MMP-induced cancer cell invasion and for identification of cancer cells expressing MT1-MMP. These novel bi-functional inhibitory peptides will provide specificity with limited systemic toxicity.

[4] = test system: human MDA-MB-231 breast cancer cells; assay: Cell migration of MDA-MB-231 cells expressing endogenous MT1-MMP; format: cell-based
From the text: as §1

[5] = test system: human MDA-MB-231, and -435 breast cancer cells (-435); assay: Cell migration of MDA-MB-435 cells expressing endogenous MT1-MMP; format: cell-based
From the text: as §1

[6] = test system: human HT1080 fibrosarcoma cells; assay: Cell migration of HT1080 cells expressing endogenous MT1-MMP; format: cell-based
From the text: as §1

[7] = test system: cell migration induced by MMP-9; assay: Cell migration induced by MMP-9 (specificity); format: cell-based
From the text: as §1
(§2) The term “specifically reduces cell migration that is mediated by MT1-MMP” when in reference to a composition means that the composition reduces cell migration that is mediated by MT1-MMP, in the absence of a reduction of cell migration that is mediated by MMP-9 and/or MT3-MMP and/or MT6-MMP (FIG. 7).

[8] = test system: cell migration induced by MT6-MMP; assay: Cell migration induced by MT6-MMP (specificity); format: cell-based
From the text: as §1, §2

[9] = test system: MT1-MMP-mediated cell migration (LNCaP); assay: FITC-fibronectin degradation assay and Transwell chamber migration assay with GST-MTPEX; format: cell-based
From the text: Our results and others emphasized the critical role of the PEX domain of MT1-MMP in cells migration (8,57). […] As proof of this hypothesis, we generated chimeric cDNAs encoding GST and GST-MTPEX chimera.

[10] = test system: GFP expressing MDA-MB-435 cells; assay: Mammary fat pad tumor growth and lung metastasis model; format: in vivo, immunodeficient female mice; conditions: 20 mg/kg/day i.p. and intratumoral alternatively; after twelve weeks
Protocol: 2×10^6 GFP expressing MDA-MB-435 cells were injected in the mammary fat pad of immunodeficient female mice followed by administering 20 mg/kg/day of specific and scrambled peptides via i.p. and intratumoral injection, alternatively. Primary tumor size was monitored over a 10-week time course. Inhibitory peptides had no effect on tumor growth (A). After twelve weeks, the mice were sacrificed and the organs were pathologically examined. The lungs were sliced into 3 mm thick sections. The incidence of lung metastasis was assessed by examining metastatic tumors in the lungs (B). The number (C) and size (D) of metastasized tumors in the lungs were microscopically counted based on GFP expression and measured using Nikon NIS Elements Imaging software, respectively.

[11] = test system: MT1-GFP expressing LNCaP cells; assay: FITC-labeled Matrigel degradation in the presence of proMMP-2; format: cell-based, human
From the text: To examine the role of MT1-MMP in invasion through basement membrane in an in vitro assay, we labeled Matrigel, a soluble basement membrane matrix from the EHS tumor with FITC. Western blotting using anti-type IV collagen and anti-laminin V antibodies confirmed that type IV collagen and laminin V remained intact in FITC-labeled Matrigel. Using FITC-labeled Matrigel-coated coverslips, LNCaP cells producing MT1-GFP were examined for Matrigel degradation. MT1-MMP expressing LNCaP cells readily degraded the FITC-labeled substrate (depicted by loss of fluorescence-labeled Matrigel in FIG. 31A-a).

cells expressing MT1-MMP = assay: Flow cytometry binding to cells; conditions: flow cytometry analysis
From the text: as §1

[12] = test system: MT1-GFP expressing LNCaP cells; assay: Cell surface E-cadherin shedding; format: cell-based, human
Protocol: To examine if shedding of E-cadherin at cell-cell adherens junctions correlated with loss of cell surface E-cadherin, biotinylation of cell surface proteins followed by streptavdin precipitation and Western blotting using anti-E-cadherin antibody was performed (51).

MT1-GFP expressing cells = assay: Combined FITC-labeled fibronectin substrate degradation and phagokinetic assay; format: cell-based
From the text: Using FITC-labeled gelatin coated coverslips and engineered MT1-MMP substitution mutations, structure-function relationships of MT1-MMP in cell invasion and migration were studied by domain shuffling experiments (FIG. 32A). As expected, MT1-MMP expressing cells degraded FITC-labeled gelatin and migrated over digested substrate (FIG. 32B). […] To examine the effect of proteolytic activity of MT1-MMP on cell migration, we employed a natural MMP inhibitor, TIMP-2 in combined FITC-labeled substrate degradation assay and phagokinetic assay (54) by coating coverslips with both FIT-labeled fibronectin and colloidal gold particles.

[13] = test system: MT1-GFP expressing LNCaP cells; assay: Cell scattering in 3D type I collagen gel; format: cell-based, human; conditions: TIMP-2 10 nM
From the text: Although increasing evidence highlight the importance of proteolytic remodeling of the ECM during invasion (65,66), recent reports have challenged this concept showing that the ability of tumor cells to migrate through collagenous barriers by switching to an amoeboid-like form was independent on proteinases (67). This observation, however, was possible due to reversible MMP inhibitors and low concentration of inhibitors (68). […] Employing a 3-dimensional (3D) culture in native type I collagen gel, we examined the cell scattering effect of MT1-GFP. […] GFP-alone expressing LNCaP cells formed spherical aggregates (FIG. 37A-a2-a3), while MT-GFP expressing LNCaP cells presented a scattered distribution in the gels (FIG. 37-b2-b3). H & E staining of frozen sections confirmed this observation (FIG. 37A-a4,b4).

CSCC[C@H](NC(=O)[C@@H]1CCCN1C(=O)[C@H](Cc1ccc(O)cc1)NC(=O)CN)C(=O)N1CCC[C@H]1C(=O)O [IS4-5, GYPMP] (H-GYPMP-OH; N-terminus and C-terminus assumed)
MT1-MMP-induced proMMP-2 activation [1]: specifically inhibited | IC50 [2]: 1500 nM

CSCC[C@H](NC(=O)[C@@H](N)C(C)C)C(=O)N[C@@H](CC(=O)O)C(=O)NCC(=O)N[C@@H](Cc1ccc(O)cc1)C(=O)N1CCC[C@H]1C(=O)N[C@@H](CCSC)C(=O)N1CCC[C@H]1C(=O)O [IS4-8] (H-VMDGYPMP-OH; N-terminus and C-terminus assumed)
cell migration [3]: reduce cell migration | cell migration [4]: reduce cell migration | cell migration [5]: reduce cell migration | cell migration [6]: reduce cell migration | cell migration induced by MMP-9 [7]: do not affect cell migration | cell migration induced by MT6-MMP [8]: do not affect cell migration | MT1-MMP-induced proMMP-2 activation [1]: specifically inhibited | IC50 [2]: 1500 nM

CC(C)C[C@H](NC(=O)[C@H](C)NC(=O)[C@H](CO)NC(=O)[C@H](CCCCN)NC(=O)[C@@H]1CCCN1C(=O)[C@H](Cc1ccc(O)cc1)NC(=O)CN)C(=O)N[C@@H](CCCNC(=N)N)C(=O)O [IVS4-8] (H-GYPKSALR-OH; N-terminus and C-terminus assumed)
cell migration [3]: reduce cell migration | cell migration [4]: reduce cell migration | cell migration [5]: reduce cell migration | cell migration [6]: reduce cell migration | cell migration induced by MMP-9 [7]: do not affect cell migration | cell migration induced by MT6-MMP [8]: do not affect cell migration | IC50 [2]: 10000 nM

GST-tagged MTPEX protein: purified GST fusion protein of the PEX domain of MT1-MMP
MT1-MMP-mediated cell migration [9]: inhibited MT1-MMP-mediated cell migration | MT1-MMP-mediated cell migration ([9]; listed as MT1-MMPPEX): inhibited MT1-MMP-medicated LNCaP cell migration | MT1-MMP-mediated cell migration ([9]; listed as recombinant MT1-PEX protein): blocked MT1-MMP-mediated cell migration

IS4: MT1-MMP specific inhibitory IS4 peptide given to mice in Example 27; length (IS4-8 or IS4-5) not stated (VMDGYPMP)
lung metastasis (degree/number of metastasized tumors) [10]: reduced | tumor foci area (size) in the lung [10]: tumor sizes in scramble peptide treated mice were noticeably larger

IVS4: MT1-MMP specific inhibitory IVS4 peptide given to mice in Example 27; probably IVS4-8 (GYPKSALR)
lung metastasis (degree/number of metastasized tumors) [10]: reduced | tumor foci area (size) in the lung [10]: tumor sizes in scramble peptide treated mice were noticeably larger

TIMP-1: recombinant TIMP-1, tissue inhibitor of metalloproteinases used as control inhibitor
cell migration over Matrigel [11]: did not interfere with cell migration | digestion of FITC-labeled Matrigel [11]: partial inhibition of substrate digestion

biotinylated IS4-5: biotinylated IS4-5 (GYPMP) peptide used for flow cytometry (also: biotinylated, position not given here)
binding to cells expressing MT1-MMP (cells expressing MT1-MMP): specifically binds to cells expressing MT1-MMP

tissue inhibitor of matrix metalloproteinase-2 [TIMP-2]
cell surface E-cadherin shedding [12]: interfered with cell surface E-cadherin shedding | digestion of FITC-labeled Matrigel [11]: totally abolished the digestion of Matrigel | substrate degradation (FITC-labeled fibronectin) (MT1-GFP expressing cells): interfered with substrate degradation | scattered distribution of cells in type I collagen gel [13]: abolished
